Columns and labels:
[1] = system: corneodesmosine; test: Degradation of corneodesmosines in acetonic powders of stratum corneum (immunoblotting with antibody G36-19, chemiluminescence); type: biochemical, human; settings: aqueous solution containing 2% of active agent, pH 8.0, 17 h incubation at 30° C., 33 and 46 kD bands, versus control without active agent
Experimental: Method for evaluating desquamation by measuring the degradation of corneodesmosines The ability of aminosulfonic derivatives of formula (I) according to the invention to promote desquamation by degradation of corneodesmosines is studied in this example. […] It is studied by immunoblotting after separation by electrophoresis and transfer onto a membrane. […] The nylon-varnish strips associated with the corneocytes are immersed in 1 ml/cm^2 of acetone in order to detach the corneocytes. The mixture is filtered and then rinsed three times with the same volume of acetone in order to remove all trace of varnish. Finally, the mixture is dried under vacuum: acetonic powders of stratum corneum are thus obtained. The acetonic powders are divided into 1 mg aliquots. 100 μl of the aqueous solutions containing 2% of active agent adjusted to pH 8.0 are added. […] Two incubation times are studied: t=0 and t=17 h. In the latter case, the incubation takes place at 30° C. with stirring. After incubation, the mixtures are centrifuged for 10 minutes at 10 000×g. The supernatant is removed and replaced with 100 μl of 0.0625 M Tris/HCl pH 6.8 Laemmli buffer, 2% SDS, 200 mM DTT, 10% glycerol, which allows the proteins to be extracted. The mixture is boiled for 10 minutes at 100° C. and then ground in a Potter mill. The mixture is centrifuged for 10 minutes at 10 000×g and the supernatant is then collected. It contains the corneodesmosomal proteins. The total proteins are assayed according to the Bradford method (Biorad kit). This allows an adjustment to 0.6 mg/ml of the samples and a real comparison of the treatments. The samples and also a Rainbow (Amersham Pharmacia Biotech) low molecular weight standard at 1⁄3 are separated by electrophoresis on gel containing 12% acrylamide for 30 minutes at 100 V and then for 1 hour at 200 V. After the electrophoresis, the proteins are transferred onto an Immobilon-P membrane (Millipore) for 3 hours at 60 V. The membrane is then incubated for twice 15 minutes in TBS-TL buffer: 25 mM Tris, 0.15M NaCi pH 7.2, 0.05% Tween 20, 0.5% skimmed milk powder, in order to block the non-specific sites. Incubation with the antibody [MUT]-19 at 1/12500 is performed overnight at 4° C. After two rinses of 5 minutes in TBS-TL buffer, the membrane is incubated with a goat anti-mouse IG(H+L) antibody peroxidase conjugate (Biorad) at 1/4000 for 1 hour 30 minutes at ambient temperature. After several rinses of 5 minutes in TBS-TL buffer and then TBS buffer (without milk or Tween), the membrane is incubated for 1 minute in 10 ml of ECL reagent (Amersham Pharmacia Biotech). The chemiluminescence of the corneodesmosine bands is measured with the FluorS Multimager (Biorad). The 33 and 46 kD bands are quantified with the Quantity-one software (Biorad). […] This control takes into account the natural degradation of the corneodesmosines which takes place during the incubation.

[2] = system: desmoglein (corneodesmosomal protein); settings: shown in EP-A2-0,852,949 (Shiseido); cited from earlier work

Row | SMILES | Percentage increase in the degradation of corneodesmosine [1] | Effect on the degradation of desmoglein (in words) [2]
1 | O=S(=O)(O)CCCN1CCOCC1 [3-Morpholinopropanesulfonic acid, 3-morpholinopropanesulfonic acid] | 39% | –
2 | O=S(=O)(O)CCN1CCN(CCO)CC1 [4-(2-hydroxyethyl)piperazine-1-ethanesulfonic acid] | 65% | –
3 | NCC(=O)O [Glycine, reference compound] | 51% | promotes the degradation of desmoglein
4 | O=S(=O)(O)CCN1CCN(CCS(=O)(=O)O)CC1 [piperazine-1,4-bis(2-ethanesulfonic acid)] | 65% | –
5 | O=S(=O)(O)CC(O)CN1CCN(CC(O)CS(=O)(=O)O)CC1 (stereo not drawn) [piperazine-1,4-bis(2-hydroxypropanesulfonic acid)] | 63% | –

Source: patent US20030232063A1, “Aminosulfonic acid compounds for promoting desquamation of the skin” (SOCIETE L'OREAL S.A., priority 2000, published 2003)
